The test system of test [1] is Anopheles gambiae s.s. females. The test is described as follows: Dual-choice Y-tube olfactory meter repellency test. The class given is in vivo. Here is the method: A glass Y-tube (1.6 cm i.d., 12-cm base , two 8-cm arms at a 45° angle from one another) olfactory meter described in our previous study was used in this experiment. […] The control cotton ball with triethyl citrate (without citronellal) was inserted into the other jar. Teflon tube was used to connect all parts of Y-tube olfactory meter. Fresh air was produced by an air pump at a rate of 200 ± 10 ml/min, and purified by active carbon and silicone before flowing into the jars. The headspace of citronellal volatile was combined with the purified air and went through one arm of the Y-tube while purified air without citronellal went through the other arm. The base of the Y-tube was connected to an air collection bottle. One hundred female A. gambiae s.s. were individually released in the air collection bottle (2-cm i.d., 8-cm high), where behavioral responses were monitored and recorded over a 300 s period. The collecting jar, Y-tubes, air collection bottle were cleaned with hot water (> 60 °C) after every 10 individuals were tested, and the cotton roll was renewed every 2 h. The olfactory test was repeated five times.

In another test the target is T1, AgamOBP20 (Anopheles gambiae, UniProt Q7Q9J3).
T1 sequence (Q7Q9J3 24-142): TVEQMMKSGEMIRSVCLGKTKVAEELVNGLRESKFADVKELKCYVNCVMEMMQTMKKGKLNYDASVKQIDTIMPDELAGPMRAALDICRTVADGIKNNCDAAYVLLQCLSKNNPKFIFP
The test is described as follows: Fluorescence competitive binding test (FCBT), 1-NPN probe. On the set-up: species or system Anopheles gambiae s.s. The protocol: (§1) For recombinant OBPs, we first need to obtain the OBPs related genes. DNA of A. gambiae s.s. female adults was extracted following the procedure used in a previous study. The predicted AgamOBPs and AgamORs were detected using standard PCR with specific respective primers which were designed using Primer Premier 5 (Premier Biosoft, California, USA; Table S1). Each PCR mixture contained 1 μl of A. gambiae s.s. […] (200 ng·ml^−1; previously extracted using a DNA extraction kit from Transgen Biotech, Beijing, China), 12.5 μl prime STAR Max Premix (2 ×), 1.5 μl of each primer ([…]), and […] sterilized H2O. The PCR cycling conditions were as follows: an initial denaturation at 94 °C for 40 s, followed by 35 cycles at […] for 40 s (denaturing), 59 °C for 50 s (annealing) and 72 °C for 3 min. The PCR products were verified and sent for sequencing. Recombinant proteins were generated by transforming plasmids containing the verified […] genes into Escherichia coli BL21 (DE3) cells. We then induced recombinant protein expression using 1 mM isopropyl ß-D-1-thiogalactopyranoside at 37 °C for 6 h. The recombinant proteins were purified using two rounds of […] ion affinity chromatography (GE Healthcare, Milwaukee, WI, USA), following the manufacturer's instructions[5],[53]; the His-tags were removed simultaneously using recombinant enterokinase (Novagen, Madison, WI, USA), following the manufacturer's instructions. The purified proteins were desalted using extensive dialysis. The size and purity of each desalted protein were determined using 15% sodium dodecylsulphate-polyacrylamide gel electrophoresis (SDS-PAGE)[55].
(§2) This assay assumes that the receptors are 100% active, and that each receptor can only bind to one ligand[56].
(§3) Recombinant proteins were dissolved in 50 mM Tris–HCl protein buffer to yield a final concentration of […], respectively. The fluorescence competitive binding were conducted in a 1-cm quartz cell and the fluorescence intensity F95S fluorescence spectrophotometer (Shanghai Lengguang Technology Co., Ltd., Shanghai, China) at 25 °C with the following parameters: excitation of 10 nm; emission slit of 10 nm; sensitivity of 2 s; gain value of 2; excitation wavelength of 337 nm; and an emission wavelength range of 370–500 nm, as a previous study.
(§4) First, the binding constant (Kd) for each recombinant protein to the 1-N-phenyl-naphthylamine (1-NPN) fluorescent probe was detected. In brief, 2 ml of protein solution and 2 μl of 1-NPN solution were added to the quartz cell and thoroughly mixed for 1 min. Peak fluorescence was continuously recorded until it stabilized and began to decrease.
(§5) Next, the ligands were added to the quartz cell along with each receptor, in order to competitively bind to the fluorescent probe. In brief, 2 ml of protein solution and 2 ml of 1-NPN solution were added to the quartz cell, and the fluorescence peaks were scanned and recorded. Then, 2 μl of each ligand was added and allowed to sit for 1 min before the peak fluorescence was scanned and recorded. We then continued to add 2 μl aliquots of the ligand solution until the fluorescence was less than half of the initial value.
(§6) The binding curves were then linearized using a Scatchard plot, which calculates the concentration of the competitor that halves the initial fluorescence intensity (IC50).

In a further test the target is T2, AgamOBP4 (Anopheles gambiae, UniProt Q8T6R7).
T2 sequence (Q8T6R7 26-150): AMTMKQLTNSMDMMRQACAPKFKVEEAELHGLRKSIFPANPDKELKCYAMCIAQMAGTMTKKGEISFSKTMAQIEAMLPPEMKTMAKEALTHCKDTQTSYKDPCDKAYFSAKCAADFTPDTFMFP
Described as above. On the set-up: species or system Anopheles gambiae s.s. Here is the method: as §1, §2, §3, §4, §5, §6

In the next test the target is T3, AgamOBP5 (Anopheles gambiae, UniProt Q8T6R6).
T3 sequence (Q8T6R6 32-154): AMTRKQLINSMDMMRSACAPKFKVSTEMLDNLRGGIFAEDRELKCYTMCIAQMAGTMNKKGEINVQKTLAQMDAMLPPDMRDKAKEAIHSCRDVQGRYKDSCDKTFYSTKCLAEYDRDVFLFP
Described as above. On the set-up: species or system Anopheles gambiae s.s. Here is the method: as §1, §2, §3, §4, §5, §6

Another test deals with T4, AgamORC7 (Anopheles gambiae, UniProt Q7QCC7).
T4 construct: His-tag (cleaved yes); made in house; host or cells: Escherichia coli BL21 (DE3)
T4 sequence (Q7QCC7 1-478): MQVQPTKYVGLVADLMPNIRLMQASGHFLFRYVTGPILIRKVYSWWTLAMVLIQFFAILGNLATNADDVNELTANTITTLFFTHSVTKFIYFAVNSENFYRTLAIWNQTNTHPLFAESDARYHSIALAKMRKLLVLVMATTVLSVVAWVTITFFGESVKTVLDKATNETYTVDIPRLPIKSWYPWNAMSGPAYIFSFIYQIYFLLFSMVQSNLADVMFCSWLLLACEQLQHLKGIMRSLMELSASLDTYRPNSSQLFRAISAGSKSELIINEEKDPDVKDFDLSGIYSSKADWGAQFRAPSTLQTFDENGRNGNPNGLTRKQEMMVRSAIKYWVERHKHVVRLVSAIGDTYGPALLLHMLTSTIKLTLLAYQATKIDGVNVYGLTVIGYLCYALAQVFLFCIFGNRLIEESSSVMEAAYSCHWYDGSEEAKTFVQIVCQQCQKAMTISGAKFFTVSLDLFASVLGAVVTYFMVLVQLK
The test is described as above. On the set-up: species or system Anopheles gambiae s.s. The protocol:
as §1, §2, §3, §4, §5, §6

“Also recorded” adds a separate entry of the source.

Turning to `CC(C)=CCCC(C)CC=O` (stereo not drawn) [citronellal], in test [1] (Y-tube, quantity series 0.01-100 nmol on cotton ball, Probit analysis), the “repellent rate for 50% of individuals (RQ50)” value is 4.02 nmol. For the same compound, the “Lg(RQ50)” value in test [1] (regression of citronellal quantity vs repellent rate, Fig. 1) is reported as 0.604. Further, the “binding of citronellal in words” value on AgamOBP20 (competition with 1-NPN) and on AgamOBP5 (competition with 1-NPN) was “could not reduce fluorescent rate down below 50%; also recorded: cannot bind well” in each case. In addition, the IC50 is 1230 nM at AgamOBP4 (competition with 1-NPN, 25 °C) and 2230 nM at AgamORC7 (competition with 1-NPN, 25 °C). In addition, the Ki on AgamOBP4 (competition with 1-NPN, 25 °C) was found to be 710 nM; at AgamORC7 (competition with 1-NPN, 25 °C) it was 1570 nM.
In the case of `c1ccc(Nc2cccc3ccccc23)cc1` [1-NPN, 1-N-phenyl-naphthylamine], the Kd on AgamOBP20 is 2170 nM; at AgamOBP4, 1140 nM; on AgamOBP5, 2440 nM; at AgamORC7 (Fig. 5 panel d, Scatchard, unit inferred), 1120 nM.

What is called IC50 is the concentration at which inhibition is half-maximal. Low values mean higher potency, high ones lower potency. As a reminder, the Ki is a dissociation constant, usually derived from enzyme kinetics or from competition with a known ligand. Low values mean a stronger hold on the target, high ones a looser hold on the target. As a reminder, the Kd is a measure of binding affinity in units of concentration. Read a low Kd as tighter binding.

Values taken from article PMC7596511 (Scientific Reports, 2020).
